Measured values published in PMC6271425, “Synthesis and Sar Study of Diarylpentanoid Analogues as New Anti-Inflammatory Agents” (Molecules, 2014).
Entries after “also recorded” stand apart in the source; their conditions may differ. Read-outs that look alike come from different tables or passages of the source.

Legend:
[1] = system: NO production in IFN-γ/LPS-stimulated RAW 264.7 macrophages; test: NO suppression (Griess nitrite determination) in IFN-γ/LPS-stimulated RAW 264.7 macrophages; assay type: cell-based, murine; details: for NO Inhibition at 50 µM (%) ± S.E.M: 50 µM test concentration; for inhibition at 50 µM: RAW264.7, 50 µM test concentration, read-out: NO Inhibition at 50 µM (%) ± S.E.M
Procedure: The synthesized compounds were screened for NO suppression activity in IFN-γ/LPS-stimulated RAW 264.7 macrophages at a 50 µM test concentration. […] The IC50 values of the fifty-seven bioactive compounds were determined and compared to that of the positive control, curcumin. An MTT assay was also carried out to confirm that NO inhibition was not due to cytotoxicity. […] The complete bioassay results of all the compounds are provided as Table S2 in Supplementary Data. RAW 264.7 murine macrophages cells obtained from American Type Culture Collection (ATCC, Rockville, MD, USA) were grown in Dulbecco’s Modified Eagle’s Medium (DMEM) containing 10% fetal bovine serum (FBS) and 1% penicillin/streptomycin in a 95% air and 5% CO2 atmosphere at 37 °C. RAW 264.7 cells at 90%–95% confluency were detached and seeded (50,000 cells/well) into a 96-well culture plate with 50 μL of DMEM and incubated for 24 h. The cells were then stimulated in […] of LPS (Escherichia coli, serotype 0111:B4) and 1 ng/ml of interferon-gamma (IFN-γ) in the presence or absence of test compounds for 17 h. Nitrite concentration was then determined by Griess assay by reacting 50 μL of cell culture supernatant with 50 μL of Griess reagent (1% sulfanilamide and 0.1% N-(1-naphthyl)ethylenediamine dihydrochloride in 2.5% phosphoric acid) at room temperature. The optical density was measured at 550 nm after 5 min of incubation at room temperature with a microplate reader.

[2] = Cell cytotoxicity determination (MTT assay); assay type: cell-based, murine; details: mouse, RAW 264.7 macrophage cells, RAW 264.7 cells, read-out: Cytotoxicity IC50 (µM) ± S.E.M
Procedure: (§1) The synthesized compounds were screened for NO suppression activity in IFN-γ/LPS-stimulated RAW 264.7 macrophages at a 50 µM test concentration. […] The IC50 values of the fifty-seven bioactive compounds were determined and compared to that of the positive control, curcumin. An MTT assay was also carried out to confirm that NO inhibition was not due to cytotoxicity. […] The complete bioassay results of all the compounds are provided as Table S2 in Supplementary Data.
(§2) RAW 264.7 murine macrophages cells obtained from American Type Culture Collection (ATCC, Rockville, MD, USA) were grown in Dulbecco’s Modified Eagle’s Medium (DMEM) containing 10% fetal bovine serum (FBS) and 1% penicillin/streptomycin in a 95% air and 5% CO2 atmosphere at 37 °C.
(§3) Supernatant in each well was removed followed by addition of 100 µL DMEM. Subsequently, 20 µL of 3-(4,5-dimethylthiazol-2-yl)-2,5-diphenyltetrazolium bromide (MTT, 5 mg/mL) was then added and the plate was incubated in a 95% air and 5% CO2 atmosphere at 37 °C for 4 h. The mixture of culture media and MTT in all wells were removed and the purplish formazan crystals formed were dissolved in dimethyl sulfoxide (DMSO) and further incubated for 15 min at room temperature. The color intensity was then measured at 570 nm at room temperature.

RAW 264.7 cells = test: Cell cytotoxicity determination (MTT assay); assay type: cell-based, murine; details: read-out: Cytotoxicity IC50 (µM) ± S.E.M
Procedure: as §1, §2, §3

[3] = Chemical stability test (UV-visible spectra in phosphate buffer pH 7.4); assay type: physicochemical; details: 20 μM in phosphate buffer pH 7.4, 1% DMSO, 30 min at 5-min intervals, 25 °C
Procedure: Poor chemical stability of curcumin has been proven as one of the important factors, which cause its low bioavailability. Therefore, in the present study, we further tested the two best compounds (88 and 97) for their chemical stability at physiological pH and compared it to that of curcumin used as reference. The test was carried out by observing the ultraviolet spectral changes of the targeted compounds for 30 minutes with 5-minutes intervals in phosphate buffer (pH 7.4). Figure 8, Figure 9 and Figure 10 depict the ultraviolet changes of curcumin, compound 88 and compound 97, respectively.
Absorbance readings were taken from 300–600 nm using a SpectraMax Plus 384 (Molecular Devices LLC, Sunnyvale, CA, USA). A stock solution of 50 mM curcumin or active compounds 88 and 97 were prepared and diluted by phosphate buffer (pH 7.4), containing 1% dimethyl sulfoxide (DMSO), to a final concentration of 20 μM. The ultraviolet absorption spectra were collected for over 30 min at 5-min intervals at 25 °C. All spectral measurements were carried out in a 1 cm path-length quartz cuvette.

[4] = IFN-γ/LPS-stimulated RAW 264.7 cells
[5] = Mus musculus, IFN-γ/LPS-stimulated RAW 264.7 cells
[6] = Mus musculus, RAW264.7, IFN-γ/LPS-stimulated RAW 264.7 cells, read-out: NO Inhibition IC50 (µM) ± S.E.M
[7] = Mus musculus, RAW264.7, Table 6, NO suppression IC50 used for QSAR, unit inferred, read-out: IC50
[8] = Mus musculus, RAW264.7, −log IC50 of NO suppression, read-out: pIC50 (converted)

Compound | NO Inhibition at 50 µM (%) ± S.E.M [1, 4] [%] | inhibition at 50 µM [1, 5] [%] | IC50 [1, 6] [µM] | IC50 [1, 7] [µM] | IC50 [1, 8] [µM] | IC50 [2] [µM] | IC50 (RAW 264.7 cells) [µM] | Chemical stability (ultraviolet spectral changes) [3] | IC50 ([1]; IFN-γ/LPS-stimulated RAW 264.7 cells, read-out: NO Inhibition IC50 (µM) ± S.E.M) [µM]
O=C(/C=C(O)/C=C/c1ccc(O)c(O)c1)c1cc(Cl)ccc1O [Compound 88] | 99.7 ± 1.2 | 99.7 ± 1.15 | 4.89 ± 0.312 | 4.9 ± 0.3 | 4.9 | 56.4 ± 1.19 | 40.9 ± 1.6 | excellent chemical stability; also recorded: no significant changes | 
O=C(/C=C(O)/C=C/c1ccc(O)c(O)c1)c1ccccc1O [Compound 97] | 98.9 ± 1.6 | 98.9 ± 1.58 | 9.56 ± 0.468 | 9.6 ± 0.5 | 9.55 | > 100 |  | excellent chemical stability; also recorded: no significant changes | 
COc1cc(/C=C/C(=O)CC(=O)/C=C/c2ccc(O)c(OC)c2)ccc1O [Curcumin, curcumin, reference compound] | 99.3 ± 0.2 | 99.33 ± 0.2 | 14.7 ± 0.24 |  |  | 28.8 ± 0.77 | 28.8 ± 0.8 | gradually decreased over time | 14.7 ± 0.2
